# System: L. major lysate proteins
# Experiment: Multitargeted bead mixture chemoproteomics, single concentration competition, proteome-wide
# Type: binding
smiles,measurement,setting,value
"Nc1nc2[nH]cc(CCc3ccc(C(=O)N[C@@H](CCC(=O)O)C(=O)O)cc3)c2c(=O)[nH]1 [PTX, pemetrexed]",fold change relative to vehicle control,"protein LMJF.35.1380, MIT[…], BETA SUBUNIT, PUTATIVE",0.94
same,fold change vs vehicle control,"protein LMJF.35.1830 HY[…], CONSERVED",0.93
same,fold change vs vehicle control,protein LMJF.35.3340 6-phosphogluconate dehydrogenase,1.01
same,fold change,"protein LMJF.35.3700 GIM5A PROTEIN, PUTATIVE,[…] PROTEIN, vehicle control = 1",0.93
same,fold change vs vehicle control,"protein LMJF.35.3760 60S RIBOSOMAL PROTEIN L27A/L29, PUTATIVE",1.08
same,fold change relative to vehicle control,"protein LMJF.35.3840, […] 2 SUBUNIT, PUTATIVE",0.83
same,fold change vs vehicle control,"protein LMJF.35.3860 T-COMPLEX PROTEIN 1, ETA SUBUNIT, PUTATIVE",0.97
same,fold change,"protein LMJF.35.4420 MIT[…] TRANSPORTER, PUTATIVE, vehicle control = 1",1.01
same,fold change relative to vehicle control,"protein LMJF.35.4880, HY[…], CONSERVED (TPR repeat, putative)",1.4
same,fold change relative to vehicle control,"protein LMJF.35.5330, ISOPENTENYL-D[…]-ISOMERASE, PUTATIVE",1.04
same,fold change relative to vehicle control,"protein LMJF.36.0070, STRESS-INDUCIBLE PROTEIN STI1 HOMOLOG",1.49
same,fold change,"protein LMJF.36.0480 HY[…], CONSERVED, vehicle control = 1",0.95
same,fold change vs vehicle control,"protein LMJF.36.0620 HY[…], CONSERVED",0.88
same,fold change vs vehicle control,"protein LMJF.36.0930 40S RIBOSOMAL PROTEIN S18, PUTATIVE",1.13
same,fold change vs vehicle control,"protein LMJF.36.0990 40S RIBOSOMAL PROTEIN S10, PUTATIVE",1.06
same,fold change,"protein LMJF.36.1140 SHORT CHAIN 3-HYDROXYACYL-COA DEHYDROGENASE, PUTATIVE, vehicle control = 1",0.9
same,fold change relative to vehicle control,"protein LMJF.36.1260, FRUCTOSE-1,6-BI[…]",1.12
same,fold change,"protein LMJF.36.1340 N-ACETYLT[…] NAT1, PUTATIVE, vehicle control = 1",0.98
same,fold change vs vehicle control,"protein LMJF.36.1370 TRANSITIONAL ENDOPLASMIC RETICULUM ATPASE, PUTATIVE,VALOSIN-CONTAINING PROTEIN HOMOLOG",0.94
same,fold change vs vehicle control,"protein LMJF.36.1650 […] 5 SUBUNIT, PUTATIVE",1.01
same,fold change relative to vehicle control,"protein LMJF.36.2380, STEROL 24-C-METHYLTRANSFERASE, PUTATIVE",0.95
same,fold change vs vehicle control,"protein LMJF.36.2950 SUCCINYL-COA LIGASE GDP-FORMING] BETA-CHAIN, PUTATIVE",0.96
same,fold change vs vehicle control,protein LMJF.36.3210 14-3-3 PROTEIN-LIKE PROTEIN,0.92
same,fold change vs vehicle control,protein LMJF.36.3410 SHORT CHAIN DEHYDROGENASE-LIKE PROTEIN,1.04
same,fold change,"protein LMJF.36.3460 HY[…], CONSERVED (NIPSNAP, putative), vehicle control = 1",0.94
same,fold change,"protein LMJF.36.3580 HY[…], CONSERVED (Protein of unknown function (DUF2009), putative), vehicle control = 1",1.01
same,fold change,"protein LMJF.36.3750 40S RIBOSOMAL PROTEIN S27-1, PUTATIVE, vehicle control = 1",0.86
same,fold change vs vehicle control,protein LMJF.36.3910 S-ADENOSYLHO[…],0.95
same,fold change vs vehicle control,"protein LMJF.36.5010 40S RIBOSOMAL PROTEIN SA, PUTATIVE",1.03
same,fold change vs vehicle control,"protein LMJF.36.5130 HY[…], CONSERVED",0.91
same,fold change vs vehicle control,"protein LMJF.36.5150 HY[…], CONSERVED",0.87
same,fold change relative to vehicle control,"protein LMJF.36.5380, NADH DEHYDROGENASE, PUTATIVE",0.93
same,fold change vs vehicle control,"protein LMJF.36.5390 PHOSPHORIBOSYLPYR[…], PUTATIVE",0.98
same,fold change vs vehicle control,"protein LMJF.36.5620 ISOLEUCYL-TRNA SYNTHETASE, PUTATIVE",0.96
same,fold change,"protein LMJF.36.6430 PROTEIN TRANSPORT PROTEIN SEC23-LIKE PROTEIN, vehicle control = 1",0.86
same,fold change vs vehicle control,"protein LMJF.36.6760 HY[…], CONSERVED",0.92
same,fold change relative to vehicle control,"protein LMJF.[…], MIT[…] BETA SUBUNIT, PUTATIVE",0.97
same,fold change relative to vehicle control,"protein LMJF.[…], POLY(A) EXPORT PROTEIN, PUTATIVE",1.13
same,fold change,"vs vehicle control, protein LINJ.20.0630 CYTIDINE TR[…], PUTATIVE,CTP SYNTHASE, PUTATIVE",0.98
same,fold change,"vs vehicle control, protein LINJ.20.1390 COATOMER BETA SUBUNIT, PUTATIVE",0.66
same,fold change,"vs vehicle control, protein LMJF.05.1140 VACUOLAR ATPASE SUBUNIT-LIKE PROTEIN",0.84
same,fold change,"vs vehicle control, protein LMJF.07.1090 DELTA-5 FATTY ACID DESATURASE",0.92
same,fold change,"vs vehicle control, protein LMJF.09.0220 HY[…], CONSERVED",0.65
same,fold change,"vs vehicle control, protein LMJF.11.1030 HY[…], CONSERVED",0.9
same,fold change,"vs vehicle control, protein LMJF.14.0640 FATTY ACID ELONGASE, PUTATIVE",0.83
same,fold change,"vs vehicle control, protein LMJF.14.0705 FATTY ACID ELONGASE, PUTATIVE",0.85
same,fold change,"vs vehicle control, protein LMJF.14.1120 KINESIN K39, PUTATIVE",0.88
same,fold change,"vs vehicle control, protein LMJF.16.1610 PROHIBITIN",1.07
same,fold change,"vs vehicle control, protein LMJF.17.0010 HY[…], CONSERVED",0.88
same,fold change,"vs vehicle control, protein LMJF.18.1130 RAS-RELATED PROTEIN RAB-5, PUTATIVE",0.65
same,fold change,"vs vehicle control, protein LMJF.19.1420 CYSTEINE PEPTIDASE A (CPA)",0.88
same,fold change,"vs vehicle control, protein LMJF.21.0280 HY[…], CONSERVED",0.88
same,fold change,"vs vehicle control, protein LMJF.22.1560 40S RIBOSOMAL PROTEIN L14, PUTATIVE",0.87
same,fold change,"vs vehicle control, protein LMJF.23.1220 T-COMPLEX PROTEIN 1, GAMMA SUBUNIT, PUTATIVE",0.94
same,fold change,"vs vehicle control, protein LMJF.24.0370 ASPARTATE AMINOTRANSFERASE, PUTATIVE",1.06
same,fold change,"vs vehicle control, protein LMJF.25.1770 ENOYL-COA REDUCTASE, PUTATIVE",1.06
same,fold change,"vs vehicle control, protein LMJF.26.0170 60S RIBOSOMAL PROTEIN L7, PUTATIVE",0.79
same,fold change,"vs vehicle control, protein LMJF.26.1550 TRIFUNCTIONAL ENZYME ALPHA SUBUNIT, MIT[…]-LIKE PROTEIN",1.12
same,fold change,"vs vehicle control, protein LMJF.26.1610 PROLINE OXIDASE, MIT[…]-LIKE PROTEIN",0.89
same,fold change,"vs vehicle control, protein LMJF.28.1950 X-PRO, DIPEPTIDYL-PEPTIDASE,SERINE PEPTIDASE, CLAN SC, FAMILY S15, PUTATIVE",0.74
same,fold change,"vs vehicle control, protein LMJF.31.1070 BIOTIN/LIPOATE PROTEIN LIGASE-LIKE PROTEIN",0.65
same,fold change,"vs vehicle control, protein LMJF.32.1370 HY[…], CONSERVED",0.79
same,fold change,"vs vehicle control, protein LMJF.34.0490 IMPORTIN BETA-1 SUBUNIT, PUTATIVE",0.77
same,fold change,"vs vehicle control, protein LMJF.34.4060 UBIQUITIN HYDROLASE, PUTATIVE,CYSTEINE PEPTIDASE, CLAN CA, FAMILY C19, PUTATIVE",0.78
same,fold change,"vs vehicle control, protein LMJF.36.1600 […] 1 SUBUNIT, PUTATIVE",0.85
same,fold change,"vs vehicle control, protein LMJF.[…] RIBOSOMAL PROTEIN S7, PUTATIVE",1.19
